Experimental data: patent US12383653B2, “Neutral multidomain peptide hydrogels and uses thereof” (William Marsh Rice University, priority 2018, dated 2025)
Entries after “also recorded” stand apart in the source; their conditions may differ. Where a SMILES comes first, the peptide text is derived from it. [ ]: non-standard residue; d: D form. Hyp = O=C(O)[C@@H]1C[C@@H](O)CN1

Assays:
NIH-3T3 fibroblasts = experiment: 3D culture cytocompatibility, Calcein AM / Ethidium homodimer-1 viability and cell morphology; type: cell-based
Protocol: (§1) Cytocompatibility and cell viability studies. All cell culture materials, not otherwise specified, were purchased from Gibco, Life Technologies. NIH-3T3 fibroblast cells were cultured in Dulbecco's Modified Eagle Medium (DMEM) supplemented with 10% Fetal Bovine Serum (FBS), 2% L-glutamine (200 mM), 1% sodium pyruvate (100 mM), and 1% pen-strep solution (5000 units/mL of penicillin and 5 mg/mL of streptomycin, Sigma-Aldrich, St. Louis, MO). Cells were maintained at 37° C. and 5% CO2 with humidity and split when reaching 80%-90% confluency by treatment with 0.25% trypsin-EDTA and neutralization with complete media. Cells were centrifuged for 6 min at 1600 rpm, then the cell pellet was dispersed in HBSS, counted and adjusted to the required concentration. 3D cell culture in K2 hydrogel was achieved by mixing a 2% by weight peptide stock solution in 298 mM sucrose with a cell suspension of 2×10^6 cells/mL in HBSS. The final concentration was 1% by weight K2 hydrogel in 149 mM sucrose and 0.5×HBSS with 1×10^6 cells/mL. For O5 peptide, hydrogel was prepared by sonication using only 90% of the required 149 mM sucrose-0.5×HBSS to obtain a 1% by weight concentration, the remaining 10% was added as a cell suspension, and mixed by pipetting into the gel to obtain a final concentration of 1×10^6 cells/mL evenly distributed though the volume of the hydrogel. 70 μL of seeded hydrogels were cultured in a Lab-Tek 16-well glass chamber ([…], Thermo Fisher, Rochester, NY) with 200 μL of medium and fed every 2 days by replacing 100 μL with fresh media. Cell viability was analyzed using a live/dead viability kit (Invitrogen, Thermo Fisher, Carlsbad, CA). At specific time points, the medium was removed, and gels were rinsed with 1×PBS, then 100 μL of staining solution containing 2 μM Calcein AM and 4 μM Ethidium homodimer-1 in DPBS were added. Cells were incubated from 15 to 30 min and imaged using a Nikon A1 Rsi fluorescent confocal microscope (Nikon Instruments, Tokyo, Japan). Three z-stack images of 100 μm deep per sample were taken at 20× using a 488 nm green channel and 561 nm red channel lasers. Images were processed with NIS Element and live/dead cell counting was performed on Imaris 3D/4D Image Processing software (Bitplane, Concord, MA).
(§2) To evaluate the cell morphology, hydrogels were rinsed with PBS and fixed with 10% buffered formalin for 30 min Cells were treated with 0.5% Triton X for 10 min and 100 mM glycine for 10 min, followed by 10% Bovine Serum Albumin (BSA) in HBSS block solution. Then cells were stained for filamentous actin with Alexa Fluor® 488-Phalloidin and for the nuclei with ProLong® Gold Antifade DAPI mounting media. Cell in the hydrogels were analyzed by confocal microscopy using a 40× water objective and processed as described.

[1] = as above; type: cell-based; details: mouse; day 1 after encapsulation, 1 wt.% hydrogel; read-out: percentage of viable cells
Protocol: as §1, §2

[2] = Hydrogel formation (inverted-vial test, pH, ionic strength, buffers); type: physicochemical; details: for hydrogel formation at acidic, neutral and basic pH: 1% by weight, pH adjusted with HCl or NaOH, inverted-vial test / CD
Protocol: Hydrogel Formation. Peptide solutions of O5 were prepared at 1% by weight (4.2 mM) in 149 mM sucrose and 0.5×HBSS. This buffer system was chosen to be consistent with prior MDP experiments and find optimum gelling conditions for future in vivo and in vitro work. Peptide solutions were sonicated using a Microson Ultrasonic Cell Disruptor with a 2 mm microprobe. The instrument frequency was 22.5 kHz and a power output up to 10 watts (RMS) was used. Solutions were sonicated at room temperature for 1 or 10 cycles, where each cycle consisted of 10 pulses and 1 min relaxation time between cycles. For the study of hydrogelation of O5, K2 and E2 at different pH values and ionic strength, 1% by weight peptide solutions were prepared in deionized water, PBS, or HBSS. pH was adjusted using HCl or NaOH 0.1 M solutions.

[3] = Solubility of peptides in water; type: physicochemical
[4] = Secondary structure estimation from circular dichroism in TFE, least square linear method; type: physicochemical; details: TFE at 25° C., 1 wt.%
Protocol: Circular Dichroism (CD) spectroscopy. For secondary structure characterization, peptide solutions of 1% by weight (molar concentration is included in Table 2) were prepared in 2,2,2-trifluoroethanol (TFE, Sigma Aldrich, St. Louis, MO). CD spectra acquisition was performed in a CD Jasco J-810 spectropolarimeter (Jasco Inc., Easton, MD) using a 0.01 mm cuvette. Data were collected at room temperature from 180 to 250 nm at a speed of 50 nm/min, with a 0.1 nm data pitch and the spectra were averaged over 5 scans. To study the hydrogelation of O5, 1% by weight peptide solutions were made in 149 mM sucrose solution in 0.5× Hank's Balanced Salt Solution (HBSS, Life Technologies) and analyzed as previously described.
To estimate the secondary structure of O peptide series, data fitting using the least square linear method was performed in MATLAB (Mathworks, Natick, MA). (Hyp)6, O1(SL)6O1 and K2(SL)6K2 were used as basis spectra for polyproline type II, β-sheet and α-helix, respectively (FIG. 7).

Molecule | solubility [3] [µg/mL] | % PPII [4] [%] | % α-helix [4] [%] | % β-sheet [4] [%] | Predominant Structure [4] | further results
CC(=O)N[C@@H](CCCCN)C(=O)N[C@@H](CCCCN)C(=O)N[C@@H](CO)C(=O)N[C@@H](CC(C)C)C(=O)N[C@@H](CO)C(=O)N[C@@H](CC(C)C)C(=O)N[C@@H](CO)C(=O)N[C@@H](CC(C)C)C(=O)N[C@@H](CO)C(=O)N[C@@H](CC(C)C)C(=O)N[C@@H](CO)C(=O)N[C@@H](CC(C)C)C(=O)N[C@@H](CO)C(=O)N[C@@H](CC(C)C)C(=O)N[C@@H](CCCCN)C(=O)N[C@@H](CCCCN)C(N)=O [Peptide K2, Ac-KKSLSLSLSLSLSLKK-CONH2, reference compound] | – | – | – | – | – | percentage of viable cells (NIH-3T3 fibroblasts; day 3 compared with day 1): relatively unchanged; cytotoxicity / viability over the culture (NIH-3T3 fibroblasts; days 1 to 5, 1 wt.% hydrogel): somewhat cytotoxic during the first days of cell culture; cell proliferation / viable cell density in the gel (NIH-3T3 fibroblasts; up to day 5): by day 5 cell density is significantly higher than days 1 and 3; viability at 24 h, 1 % by weight [1]: ~20%; hydrogel formation at acidic, neutral and basic pH [2]: dependent on pH; also recorded: forms a gel at pH 11; hydrogel formation at acidic, neutral and basic pH ([2]; listed as K2(SL)6K2): gels only forming at neutral pH or at elevated ionic strength
CC(=O)N1C[C@H](O)C[C@H]1C(=O)N1C[C@H](O)C[C@H]1C(=O)N[C@@H](CO)C(=O)N[C@@H](CC(C)C)C(=O)N[C@@H](CO)C(=O)N[C@@H](CC(C)C)C(=O)N[C@@H](CO)C(=O)N[C@@H](CC(C)C)C(=O)N[C@@H](CO)C(=O)N[C@@H](CC(C)C)C(=O)N[C@@H](CO)C(=O)N[C@@H](CC(C)C)C(=O)N[C@@H](CO)C(=O)N[C@@H](CC(C)C)C(=O)N1C[C@H](O)C[C@H]1C(=O)N1C[C@H](O)C[C@H]1C(N)=O [Peptide O2, Ac-OOSLSLSLSLSLSLOO-CONH2] (Ac-[Hyp][Hyp]SLSLSLSLSLSL[Hyp][Hyp]-NH2) | < 500 | 29.3 | 41.9 | 28.8 | α-helix | –
Ac-EESLSLSLSLSLSLEE-NH2 [Peptide E2, Ac-EESLSLSLSLSLSLEE-CONH2, reference compound] | – | – | – | – | – | hydrogel formation at acidic, neutral and basic pH [2]: dependent on pH; also recorded: forms a gel at acidic pH and undergoes phase separation; hydrogel formation at acidic, neutral and basic pH ([2]; listed as E2(SL)6E2): gels only forming at neutral pH or at elevated ionic strength
CC(=O)N1C[C@H](O)C[C@H]1C(=O)N1C[C@H](O)C[C@H]1C(=O)N1C[C@H](O)C[C@H]1C(=O)N1C[C@H](O)C[C@H]1C(=O)N1C[C@H](O)C[C@H]1C(=O)N1C[C@H](O)C[C@H]1C(=O)N[C@@H](CO)C(=O)N[C@@H](CC(C)C)C(=O)N[C@@H](CO)C(=O)N[C@@H](CC(C)C)C(=O)N[C@@H](CO)C(=O)N[C@@H](CC(C)C)C(=O)N[C@@H](CO)C(=O)N[C@@H](CC(C)C)C(=O)N[C@@H](CO)C(=O)N[C@@H](CC(C)C)C(=O)N[C@@H](CO)C(=O)N[C@@H](CC(C)C)C(=O)N1C[C@H](O)C[C@H]1C(=O)N1C[C@H](O)C[C@H]1C(=O)N1C[C@H](O)C[C@H]1C(=O)N1C[C@H](O)C[C@H]1C(=O)N1C[C@H](O)C[C@H]1C(=O)N1C[C@H](O)C[C@H]1C(N)=O [Peptide O6, Ac-OOOOOOSLSLSLSLSLSLOOOOOO-CONH2] (Ac-[Hyp][Hyp][Hyp][Hyp][Hyp][Hyp]SLSLSLSLSLSL[Hyp][Hyp][Hyp][Hyp][Hyp][Hyp]-NH2) | – | 48.5 | 40.2 | 11.4 | PPII | state of the peptide at 10 mg/mL ([2]; 10 mg/mL): viscous solution; hydrogelation in cell culture media ([2]; 1% by weight in 149 mM sucrose and 0.5×HBSS, ultrasonication): dissolves to form a viscous solution
CC(=O)N1C[C@H](O)C[C@H]1C(=O)N[C@@H](CO)C(=O)N[C@@H](CC(C)C)C(=O)N[C@@H](CO)C(=O)N[C@@H](CC(C)C)C(=O)N[C@@H](CO)C(=O)N[C@@H](CC(C)C)C(=O)N[C@@H](CO)C(=O)N[C@@H](CC(C)C)C(=O)N[C@@H](CO)C(=O)N[C@@H](CC(C)C)C(=O)N[C@@H](CO)C(=O)N[C@@H](CC(C)C)C(=O)N1C[C@H](O)C[C@H]1C(N)=O [Peptide O1, Ac-OSLSLSLSLSLSLO-CONH2] (Ac-[Hyp]SLSLSLSLSLSL[Hyp]-NH2) | < 500 | 0 | 0 | 100 | β-sheet | –
CC(=O)N1C[C@H](O)C[C@H]1C(=O)N1C[C@H](O)C[C@H]1C(=O)N1C[C@H](O)C[C@H]1C(=O)N[C@@H](CO)C(=O)N[C@@H](CC(C)C)C(=O)N[C@@H](CO)C(=O)N[C@@H](CC(C)C)C(=O)N[C@@H](CO)C(=O)N[C@@H](CC(C)C)C(=O)N[C@@H](CO)C(=O)N[C@@H](CC(C)C)C(=O)N[C@@H](CO)C(=O)N[C@@H](CC(C)C)C(=O)N[C@@H](CO)C(=O)N[C@@H](CC(C)C)C(=O)N1C[C@H](O)C[C@H]1C(=O)N1C[C@H](O)C[C@H]1C(=O)N1C[C@H](O)C[C@H]1C(N)=O [Peptide O3, Ac-OOOSLSLSLSLSLSLOOO-CONH2] (Ac-[Hyp][Hyp][Hyp]SLSLSLSLSLSL[Hyp][Hyp][Hyp]-NH2) | < 500 | 38.4 | 36.4 | 25.2 | PPII/α-helix | –
CC(=O)N1C[C@H](O)C[C@H]1C(=O)N1C[C@H](O)C[C@H]1C(=O)N1C[C@H](O)C[C@H]1C(=O)N1C[C@H](O)C[C@H]1C(=O)N[C@@H](CO)C(=O)N[C@@H](CC(C)C)C(=O)N[C@@H](CO)C(=O)N[C@@H](CC(C)C)C(=O)N[C@@H](CO)C(=O)N[C@@H](CC(C)C)C(=O)N[C@@H](CO)C(=O)N[C@@H](CC(C)C)C(=O)N[C@@H](CO)C(=O)N[C@@H](CC(C)C)C(=O)N[C@@H](CO)C(=O)N[C@@H](CC(C)C)C(=O)N1C[C@H](O)C[C@H]1C(=O)N1C[C@H](O)C[C@H]1C(=O)N1C[C@H](O)C[C@H]1C(=O)N1C[C@H](O)C[C@H]1C(N)=O [Peptide O4, Ac-OOOOSLSLSLSLSLSLOOOO-CONH2] (Ac-[Hyp][Hyp][Hyp][Hyp]SLSLSLSLSLSL[Hyp][Hyp][Hyp][Hyp]-NH2) | < 500 | 41.8 | 41.2 | 17 | PPII/α-helix | –
